# Laboratory results reported in ChEMBL document CHEMBL3045426, “Synthesis, Antiviral and Antibacterial Activities of Isatin Mannich Bases” (Med Chem Res, 2005).
# Experiments:
# [1] = system: Human immunodeficiency virus 1; assay: Antiviral activity against Human immunodeficiency virus 1 IIIB infected MT4 cells assessed as inhibition of virus-induced cytopathicity after 5 days by MTT assay; type: functional, organism-based; settings: MT4, 120 h
# [2] = system: Mycobacterium tuberculosis; assay: Antimycobacterial activity against Mycobacterium tuberculosis H37Rv ATCC 27294 at 6.25 ug/ml by MABA; type: functional
# [3] = system: Staphylococcus aureus; assay: Antimicrobial activity against Staphylococcus aureus after 18 to 20 hr by agar dilution method; type: functional
# [4] = system: Salmonella typhi; assay: Antimicrobial activity against Salmonella enterica subsp. enterica serovar Typhi after 18 to 20 hr by agar dilution method; type: functional
# [5] = system: Morganella morganii; assay: Antimicrobial activity against Morganella morganii after 18 to 20 hr by agar dilution method; type: functional
# [6] = Selectivity index, ratio of CC50 for human MT4 cells to EC50 for HIV1 3B infected in MT4 cells; type: toxicity, cell-based; settings: read-out: Ratio CC50/EC50
# [7] = system: Salmonella enteritidis; assay: Antimicrobial activity against Salmonella enterica subsp. enterica serovar Enteritidis after 18 to 20 hr by agar dilution method; type: functional
# [8] = system: Vibrio cholerae; assay: Antimicrobial activity against Vibrio cholerae 0139 after 18 to 20 hr by agar dilution method; type: functional; settings: 139
# [9] = system: Edwardsiella tarda; assay: Antimicrobial activity against Edwardsiella tarda after 18 to 20 hr by agar dilution method; type: functional
# [10] = system: Human immunodeficiency virus 1; assay: Antiviral activity against Human immunodeficiency virus 1 IIIB infected CEM cells assessed as protection against viral infection after 6 days by XTT assay; type: functional, CCRF-CEM; set-up: concentration or dose not given beside the values
# [11] = system: Human immunodeficiency virus 1; assay: Antiviral activity against Human immunodeficiency virus 1 IIIB infected MT4 cells assessed as protection against viral infection after 5 days by MTT assay; type: functional; set-up: concentration or dose not given beside the values
# [12] = system: Citrobacter freundii; assay: Antimicrobial activity against Citrobacter freundii after 18 to 20 hr by agar dilution method; type: functional
# [13] = system: Salmonella paratyphi; assay: Antimicrobial activity against Salmonella enterica subsp. enterica serovar Paratyphi A after 18 to 20 hr by agar dilution method; type: functional
# [14] = system: Hepatitis C virus; assay: Antiviral activity against Hepatitis C virus BM4-5 infected in Huh7 cells assessed as inhibition of viral RNA replication by phosphor screening method; type: functional, Hepacivirus hominis, Huh-7
# [15] = system: Klebsiella pneumoniae; assay: Antimicrobial activity against Klebsiella pneumoniae subsp. ozaenae after 18 to 20 hr by agar dilution method; type: functional
# [16] = system: Plesiomonas; assay: Antimicrobial activity against Plesiomonas after 18 to 20 hr by agar dilution method; type: functional
# [17] = Cytotoxicity against Homo sapiens (human) CEM cells after 5 days by MTT assay; type: cell-based; settings: CEM cells (CCRF-CEM)
# [18] = system: Shigella sonnei; assay: Antimicrobial activity against Shigella sonnei after 18 to 20 hr by agar dilution method; type: functional
# [19] = system: Enterobacter; assay: Antimicrobial activity against Enterobacter after 18 to 20 hr by agar dilution method; type: functional
# [20] = system: Salmonella typhimurium; assay: Antimicrobial activity against Salmonella enterica subsp. enterica serovar Typhimurium after 18 to 20 hr by agar dilution method; type: functional
# [21] = system: Priestia megaterium; assay: Antimicrobial activity against Bacillus megaterium after 18 to 20 hr by agar dilution method; type: functional
# [22] = system: Pseudomonas aeruginosa; assay: Antimicrobial activity against Pseudomonas aeruginosa after 18 to 20 hr by agar dilution method; type: functional
# [23] = system: Klebsiella pneumoniae; assay: Antimicrobial activity against Klebsiella pneumoniae after 18 to 20 hr by agar dilution method; type: functional
# [24] = Cytotoxicity against Homo sapiens (human) MT4 cells after 5 days by MTT assay; type: cell-based
# [25] = system: Proteus mirabilis; assay: Antimicrobial activity against Proteus mirabilis after 18 to 20 hr by agar dilution method; type: functional
# [26] = system: Vibrio parahaemolyticus; assay: Antimicrobial activity against Vibrio parahaemolyticus after 18 to 20 hr by agar dilution method; type: functional
# [27] = system: Vibrio fluvialis; assay: Antimicrobial activity against Vibrio fluvialis after 18 to 20 hr by agar dilution method; type: functional
# [28] = system: Vibrio cholerae; assay: Antimicrobial activity against Vibrio cholerae 01 after 18 to 20 hr by agar dilution method; type: functional; settings: 1
# [29] = system: Proteus vulgaris; assay: Antimicrobial activity against Proteus vulgaris after 18 to 20 hr by agar dilution method; type: functional
# [30] = system: Human immunodeficiency virus 1; assay: Antiviral activity against Human immunodeficiency virus 1 IIIB infected CEM cells assessed as inhibition of virus-induced cytopathicity after 6 days by XTT assay; type: functional, organism-based; settings: CCRF-CEM, 144 h
# [31] = system: Escherichia coli; assay: Antimicrobial activity against Escherichia coli NCTC 10418 after 18 to 20 hr by agar dilution method; type: functional
# [32] = system: Shigella boydii; assay: Antimicrobial activity against Shigella boydii after 18 to 20 hr by agar dilution method; type: functional
# [33] = system: Vibrio mimicus; assay: Antimicrobial activity against Vibrio mimicus after 18 to 20 hr by agar dilution method; type: functional
# [34] = Cytotoxicity against Homo sapiens (human) HuH7 cells assessed as cell growth at 50 ug/ml after 3 days by Neutral red assay; type: cell-based, Huh-7; settings: read-out: Activity
SMILES,EC50 [1],inhibition at 6.25 µg/mL [2],MIC [3],MIC [4],MIC [5],MIC [7],MIC [8],MIC [9],Activity [11],MIC [12],MIC [13],inhibition (INH) [14],MIC [15],MIC [16],MIC [18],MIC [19],MIC [20],MIC [21],MIC [22],MIC [23],other results
COc1cc(Cc2cnc(/N=C3\C(=O)N(CN4CCCCC4C)c4ccc(Cl)cc43)nc2N)cc(OC)c1OC (centres undefined),32.6 µg/mL,10%,312 µg/mL,1250 µg/mL,1250 µg/mL,625 µg/mL,625 µg/mL,1250 µg/mL,62.6%,625 µg/mL,625 µg/mL,89%,1250 µg/mL,19.5 µg/mL,1250 µg/mL,625 µg/mL,1250 µg/mL,625 µg/mL,1250 µg/mL,1250 µg/mL,"selectivity ratio [6]: 3; Activity [10]: 20.7%; CC50 at 120 h [17]: > 83.8 µg/mL; CC50 at 120 h [24]: 97.3 µg/mL; MIC [25]: 625 µg/mL; MIC [26]: 1.22 µg/mL; MIC [27]: 1250 µg/mL; MIC [28]: 4.88 µg/mL; MIC [29]: 625 µg/mL; EC50 [30]: > 83.8 µg/mL; MIC [31]: 625 µg/mL; MIC [32]: 4.88 µg/mL; MIC [33]: 0.61 µg/mL; viability at 72 h, 50 ug/ml [34]: 112%"
CCCCN(CCCC)CN1C(=O)/C(=N\c2ncc(Cc3cc(OC)c(OC)c(OC)c3)c(N)n2)c2cc(Cl)ccc21,16.1 µg/mL,67%,1250 µg/mL,1250 µg/mL,625 µg/mL,625 µg/mL,625 µg/mL,1250 µg/mL,73.2%,1250 µg/mL,625 µg/mL,84%,1250 µg/mL,39.1 µg/mL,1250 µg/mL,1250 µg/mL,1250 µg/mL,1250 µg/mL,2500 µg/mL,1250 µg/mL,"selectivity ratio [6]: 3; CC50 at 120 h [24]: 62.6 µg/mL; MIC [25]: 1250 µg/mL; MIC [26]: 19.5 µg/mL; MIC [27]: 1250 µg/mL; MIC [28]: 0.61 µg/mL; MIC [29]: 1250 µg/mL; MIC [31]: 1250 µg/mL; MIC [32]: 39.1 µg/mL; MIC [33]: 4.88 µg/mL; viability at 72 h, 50 ug/ml [34]: 48%"
COc1cc(Cc2cnc(/N=C3\C(=O)N(CN4CCN(C)CC4)c4ccc(Cl)cc43)nc2N)cc(OC)c1OC,> 80.7 µg/mL,35%,1250 µg/mL,1250 µg/mL,1250 µg/mL,1250 µg/mL,312 µg/mL,625 µg/mL,48.6%,1250 µg/mL,156 µg/mL,71%,1250 µg/mL,4.88 µg/mL,1250 µg/mL,312 µg/mL,1250 µg/mL,1250 µg/mL,1250 µg/mL,1250 µg/mL,"Activity [10]: 21.09%; CC50 at 120 h [17]: 88 µg/mL; CC50 at 120 h [24]: 80.7 µg/mL; MIC [25]: 1250 µg/mL; MIC [26]: 0.61 µg/mL; MIC [27]: 1250 µg/mL; MIC [28]: 1.22 µg/mL; MIC [29]: 1250 µg/mL; EC50 [30]: > 88 µg/mL; MIC [31]: 1250 µg/mL; MIC [32]: 19.5 µg/mL; MIC [33]: 1.22 µg/mL; viability at 72 h, 50 ug/ml [34]: 83%"
COc1cccc(N2CCN(CN3C(=O)/C(=N\c4ncc(Cc5cc(OC)c(OC)c(OC)c5)c(N)n4)c4cc(Cl)ccc43)CC2)c1,> 32.6 µg/mL,33%,156 µg/mL,1250 µg/mL,2500 µg/mL,1250 µg/mL,312 µg/mL,1250 µg/mL,10.7%,1250 µg/mL,156 µg/mL,100%,1250 µg/mL,0.61 µg/mL,625 µg/mL,1250 µg/mL,2500 µg/mL,1250 µg/mL,2500 µg/mL,625 µg/mL,"Activity [10]: 21.93%; CC50 at 120 h [17]: 23.3 µg/mL; CC50 at 120 h [24]: 32.6 µg/mL; MIC [25]: 2500 µg/mL; MIC [26]: 2.44 µg/mL; MIC [27]: 1250 µg/mL; MIC [28]: 1.22 µg/mL; MIC [29]: 1250 µg/mL; EC50 [30]: > 23.3 µg/mL; MIC [31]: 2500 µg/mL; MIC [32]: 0.61 µg/mL; MIC [33]: 0.61 µg/mL; viability at 72 h, 50 ug/ml [34]: 71%"
COc1cc(Cc2cnc(/N=C3\C(=O)N(CN4CCN(c5cccc(Cl)c5)CC4)c4ccc(Cl)cc43)nc2N)cc(OC)c1OC,> 39.2 µg/mL,44%,1250 µg/mL,1250 µg/mL,1250 µg/mL,1250 µg/mL,625 µg/mL,1250 µg/mL,20.9%,1250 µg/mL,1250 µg/mL,96%,1250 µg/mL,19.5 µg/mL,1250 µg/mL,625 µg/mL,625 µg/mL,1250 µg/mL,156 µg/mL,1250 µg/mL,"Activity [10]: 23%; CC50 at 120 h [17]: 34.4 µg/mL; CC50 at 120 h [24]: 39.2 µg/mL; MIC [25]: 1250 µg/mL; MIC [26]: 1.22 µg/mL; MIC [27]: 625 µg/mL; MIC [28]: 0.61 µg/mL; MIC [29]: 1250 µg/mL; EC50 [30]: > 34.4 µg/mL; MIC [31]: 1250 µg/mL; MIC [32]: 19.5 µg/mL; MIC [33]: 9.76 µg/mL; viability at 72 h, 50 ug/ml [34]: 67%"
